Source: ChEMBL document CHEMBL5291721, “A preclinical secondary pharmacology resource illuminates target-adverse drug reaction associations of marketed drugs” (Nat Commun, 2023)

Tests used:
[1] = target: Beta-2 adrenergic receptor (Homo sapiens, UniProt P07550); format: functional, cell-based
[2] = target: T1, 5-hydroxytryptamine receptor 1A (Homo sapiens, UniProt P08908)
T1 sequence (P08908 whole entry): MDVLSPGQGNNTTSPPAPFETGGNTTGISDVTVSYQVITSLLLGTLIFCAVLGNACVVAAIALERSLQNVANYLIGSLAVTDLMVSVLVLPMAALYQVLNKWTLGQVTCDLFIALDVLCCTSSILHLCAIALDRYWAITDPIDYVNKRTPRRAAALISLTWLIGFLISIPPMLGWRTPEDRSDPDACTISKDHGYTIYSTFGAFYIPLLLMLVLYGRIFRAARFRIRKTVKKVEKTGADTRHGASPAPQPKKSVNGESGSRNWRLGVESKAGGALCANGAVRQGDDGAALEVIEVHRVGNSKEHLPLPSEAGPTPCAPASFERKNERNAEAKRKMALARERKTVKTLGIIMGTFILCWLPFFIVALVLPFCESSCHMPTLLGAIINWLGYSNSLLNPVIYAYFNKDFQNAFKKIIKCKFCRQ

[3] = target: 5-hydroxytryptamine receptor 2A (Homo sapiens, UniProt P28223); format: functional, cell-based
Sequence of 5-hydroxytryptamine receptor 2A (P28223 whole entry): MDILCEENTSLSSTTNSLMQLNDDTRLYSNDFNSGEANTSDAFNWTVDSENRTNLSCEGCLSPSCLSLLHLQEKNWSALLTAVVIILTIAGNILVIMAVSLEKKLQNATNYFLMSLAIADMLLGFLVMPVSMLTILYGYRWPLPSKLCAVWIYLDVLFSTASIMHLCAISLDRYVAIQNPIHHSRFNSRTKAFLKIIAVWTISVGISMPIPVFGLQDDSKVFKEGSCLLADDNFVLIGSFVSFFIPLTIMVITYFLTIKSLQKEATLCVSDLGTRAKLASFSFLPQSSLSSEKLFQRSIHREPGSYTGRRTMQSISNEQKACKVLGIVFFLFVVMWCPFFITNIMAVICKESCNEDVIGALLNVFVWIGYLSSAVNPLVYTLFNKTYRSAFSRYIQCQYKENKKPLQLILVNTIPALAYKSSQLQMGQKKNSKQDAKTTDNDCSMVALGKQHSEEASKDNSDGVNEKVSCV

[4] = target: Vasopressin V1a receptor (Homo sapiens, UniProt P37288)
Sequence of Vasopressin V1a receptor (P37288 whole entry): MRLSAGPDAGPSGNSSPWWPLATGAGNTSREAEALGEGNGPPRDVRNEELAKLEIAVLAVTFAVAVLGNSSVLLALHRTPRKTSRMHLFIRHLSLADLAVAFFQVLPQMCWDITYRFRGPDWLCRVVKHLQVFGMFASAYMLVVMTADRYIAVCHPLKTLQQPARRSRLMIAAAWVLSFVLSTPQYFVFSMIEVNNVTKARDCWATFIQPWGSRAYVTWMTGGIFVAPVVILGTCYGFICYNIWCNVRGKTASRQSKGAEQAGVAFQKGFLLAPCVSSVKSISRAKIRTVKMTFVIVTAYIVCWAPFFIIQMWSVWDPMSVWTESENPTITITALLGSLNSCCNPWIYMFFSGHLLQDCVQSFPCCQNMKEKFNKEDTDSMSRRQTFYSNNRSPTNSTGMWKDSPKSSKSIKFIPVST

[5] = target: Cannabinoid receptor 1 (Homo sapiens, UniProt P21554)
Sequence of Cannabinoid receptor 1 (P21554 whole entry): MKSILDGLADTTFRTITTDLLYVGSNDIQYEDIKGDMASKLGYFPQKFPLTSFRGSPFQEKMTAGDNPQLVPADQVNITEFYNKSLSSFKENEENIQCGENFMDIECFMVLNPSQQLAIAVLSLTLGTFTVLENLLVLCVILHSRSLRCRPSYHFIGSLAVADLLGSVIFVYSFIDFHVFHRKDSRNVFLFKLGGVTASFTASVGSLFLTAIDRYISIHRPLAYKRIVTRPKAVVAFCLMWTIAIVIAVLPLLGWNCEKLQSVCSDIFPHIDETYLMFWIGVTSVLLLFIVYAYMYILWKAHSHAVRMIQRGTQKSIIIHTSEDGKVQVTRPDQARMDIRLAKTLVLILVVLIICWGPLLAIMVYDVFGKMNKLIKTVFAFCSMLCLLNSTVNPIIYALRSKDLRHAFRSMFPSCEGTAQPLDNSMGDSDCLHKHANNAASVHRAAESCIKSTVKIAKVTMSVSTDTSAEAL

[6] = target: T2, Muscarinic acetylcholine receptor M1 (Homo sapiens, UniProt P11229); format: functional
T2 sequence (P11229 whole entry): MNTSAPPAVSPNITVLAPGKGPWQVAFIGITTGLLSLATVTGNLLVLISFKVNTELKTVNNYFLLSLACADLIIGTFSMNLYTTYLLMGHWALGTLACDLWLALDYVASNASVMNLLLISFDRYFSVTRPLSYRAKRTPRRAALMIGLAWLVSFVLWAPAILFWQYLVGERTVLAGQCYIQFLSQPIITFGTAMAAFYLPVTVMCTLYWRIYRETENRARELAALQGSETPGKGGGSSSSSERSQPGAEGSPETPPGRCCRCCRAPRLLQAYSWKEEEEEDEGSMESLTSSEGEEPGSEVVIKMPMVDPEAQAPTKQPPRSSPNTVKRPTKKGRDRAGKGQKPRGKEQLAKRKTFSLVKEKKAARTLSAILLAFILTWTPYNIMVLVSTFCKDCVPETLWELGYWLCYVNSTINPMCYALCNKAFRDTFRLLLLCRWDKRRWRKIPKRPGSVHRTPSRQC

[7] = target: T3, Alpha-2C adrenergic receptor (Homo sapiens, UniProt P18825); format: functional
T3 sequence (P18825 whole entry): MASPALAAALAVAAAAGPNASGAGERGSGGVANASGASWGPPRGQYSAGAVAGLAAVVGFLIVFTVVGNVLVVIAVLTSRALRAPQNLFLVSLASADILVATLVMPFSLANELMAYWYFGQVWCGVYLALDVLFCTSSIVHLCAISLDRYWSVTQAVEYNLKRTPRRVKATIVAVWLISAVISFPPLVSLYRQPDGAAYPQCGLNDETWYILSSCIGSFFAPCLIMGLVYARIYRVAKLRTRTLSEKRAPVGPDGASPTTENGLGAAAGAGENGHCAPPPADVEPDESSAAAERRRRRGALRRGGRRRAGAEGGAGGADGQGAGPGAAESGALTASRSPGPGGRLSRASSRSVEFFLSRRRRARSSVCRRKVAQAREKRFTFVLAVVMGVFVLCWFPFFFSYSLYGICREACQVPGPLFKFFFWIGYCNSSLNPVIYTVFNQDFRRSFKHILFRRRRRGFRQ

[8] = target: T1, 5-hydroxytryptamine receptor 1A; format: functional, cell-based
[9] = target: T4, B1 bradykinin receptor (Homo sapiens, UniProt P46663)
T4 sequence (P46663 whole entry): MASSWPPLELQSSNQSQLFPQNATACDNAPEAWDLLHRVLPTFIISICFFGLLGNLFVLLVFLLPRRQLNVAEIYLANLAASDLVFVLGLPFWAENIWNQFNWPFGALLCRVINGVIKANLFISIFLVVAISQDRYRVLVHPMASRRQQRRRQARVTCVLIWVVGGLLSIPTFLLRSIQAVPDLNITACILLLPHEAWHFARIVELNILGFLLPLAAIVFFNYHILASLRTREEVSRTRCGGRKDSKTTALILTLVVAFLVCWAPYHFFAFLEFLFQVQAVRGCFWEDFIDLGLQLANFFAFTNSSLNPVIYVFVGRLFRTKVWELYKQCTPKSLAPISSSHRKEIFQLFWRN

[10] = target: T5, Glucocorticoid receptor (Homo sapiens, UniProt P04150)
T5 sequence (P04150 whole entry): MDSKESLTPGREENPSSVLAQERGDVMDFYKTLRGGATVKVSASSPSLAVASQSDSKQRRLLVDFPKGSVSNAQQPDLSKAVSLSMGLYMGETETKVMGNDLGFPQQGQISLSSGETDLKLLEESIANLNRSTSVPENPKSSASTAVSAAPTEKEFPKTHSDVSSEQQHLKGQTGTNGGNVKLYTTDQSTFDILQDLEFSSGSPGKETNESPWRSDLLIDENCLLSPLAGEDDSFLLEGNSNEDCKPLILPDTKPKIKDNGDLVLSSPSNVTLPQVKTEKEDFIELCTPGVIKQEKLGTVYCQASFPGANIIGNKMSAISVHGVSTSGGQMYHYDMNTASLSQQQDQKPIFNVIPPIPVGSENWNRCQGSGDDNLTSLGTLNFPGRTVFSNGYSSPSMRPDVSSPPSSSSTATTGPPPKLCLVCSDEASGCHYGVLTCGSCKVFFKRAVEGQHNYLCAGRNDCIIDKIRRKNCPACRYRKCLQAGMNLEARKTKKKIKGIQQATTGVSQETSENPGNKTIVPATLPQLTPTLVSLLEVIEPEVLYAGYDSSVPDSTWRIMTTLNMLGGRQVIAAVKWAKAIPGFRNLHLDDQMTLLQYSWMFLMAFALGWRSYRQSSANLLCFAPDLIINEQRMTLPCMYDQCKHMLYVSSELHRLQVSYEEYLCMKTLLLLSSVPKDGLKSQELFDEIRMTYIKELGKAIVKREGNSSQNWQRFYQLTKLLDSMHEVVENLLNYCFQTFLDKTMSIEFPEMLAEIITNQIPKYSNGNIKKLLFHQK
Also: assay procedure not described here.

Sequence of Beta-2 adrenergic receptor (P07550 whole entry): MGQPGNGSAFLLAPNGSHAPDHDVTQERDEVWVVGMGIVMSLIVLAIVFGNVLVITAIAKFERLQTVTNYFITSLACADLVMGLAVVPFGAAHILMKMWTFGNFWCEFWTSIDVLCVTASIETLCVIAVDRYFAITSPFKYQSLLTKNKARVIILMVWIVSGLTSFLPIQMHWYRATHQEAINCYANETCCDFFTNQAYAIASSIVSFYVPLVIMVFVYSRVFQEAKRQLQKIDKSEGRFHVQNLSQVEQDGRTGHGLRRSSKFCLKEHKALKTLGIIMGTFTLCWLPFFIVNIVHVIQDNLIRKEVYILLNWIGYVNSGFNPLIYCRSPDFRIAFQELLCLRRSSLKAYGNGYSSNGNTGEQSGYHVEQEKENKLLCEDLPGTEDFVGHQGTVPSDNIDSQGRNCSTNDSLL

SMILES | AC50 [1] [µM] | AC50 [2] [µM] | AC50 [3] [µM] | AC50 [4] [µM] | AC50 [5] [µM] | AC50 [6] [µM] | AC50 [7] [µM] | AC50 [8] [µM] | AC50 [9] [µM] | AC50 [10] [µM]
Oc1cc(O)c2c(c1)O[C@H](c1ccc(O)c(O)c1)[C@@H](O)C2 [CIANIDANOL] | > 30 | > 10 | > 30 | > 30 | > 10 | > 10 | > 10 | > 10 | > 30 | > 30
Cc1ccc(-c2ncc(Cl)cc2-c2ccc(S(C)(=O)=O)cc2)cn1 [ETORICOXIB] | > 30 | > 10 | > 30 | > 30 | > 10 | > 10 | > 10 | > 10 | > 30 | –
CC1NCCOC1c1ccccc1 (stereo not drawn) [PHENMETRAZINE] | > 30 | > 10 | > 30 | > 30 | > 10 | > 10 | > 10 | > 10 | > 30 | –
CC(C)(N)Cc1ccccc1 [PHENTERMINE] | > 30 | > 10 | > 30 | > 30 | > 10 | > 10 | > 10 | > 10 | > 30 | > 30
